Test results published in patent publication US10273218B2, “BCL-3 inhibitors” (University College Cardiff Consultants Limited, priority 2014, dated 2019).

Key:
[1] = tested on: MDA-MB-231-Luc highly metastatic human breast cancer cells; assay: in vivo metastasis mouse model, disease free survival; parameters: species or system Nude mice; conditions: 3.5 mg/Kg once daily for 10 days; MDA-MB-231-Luc i.v.; monitored up to 49 days
Method: Nude mice are injected i.v. with 200,000 highly metastatic human breast cancer cells expressing luciferase (MDA-MB-231-Luc) then are given a compound of Formula (I) or Formula (Ia) once daily for about 10 days and are monitored for tumours by total body scan using Xenogen-IVIS. Mice with a luciferase signal above background in repeated scans in any part of their torso are scored as having metastatic disease. Total light emission in the abdominal region is quantified at time points up to 49 days post surgery and plotted as mean total light yield.
Nude mice were injected i.v. with 200,000 highly metastatic human breast cancer cells expressing luciferase (MDA-MB-231-Luc) then given 3.5 mg/Kg of compound 12, reference compound A, or Reference compound B once daily for 10 days and monitored for tumours by total body scan using Xenogen-IVIS. Mice with a luciferase signal above background in repeated scans in any part of their torso were scored as having metastatic disease. Total light emission in abdominal region was quantified at time points up to 49 days post surgery and plotted as mean total light yield. Control n=12, Reference compound A n=10, Reference compound B n=4; compound 12 n=4.

[2] = tested on: MDA-MB-436 cells (triple negative breast invasive ductal carcinoma); assay: mouse Model 4 (tumour growth at transplantation site), MDA-MB-436; assay type: in vivo, mice; conditions: 3.5 mg/kg in 1% DMSO intraperitoneal daily; MDA-MB-436 subcutaneous; caliper tumour volume
Method: Another model (Model 4) studied the effect of the compound's ability to inhibit the growth of tumour cells at the transplantation site. Human tumour cell lines were injected subcutaneously into recipient mice, followed 2 days later by single daily intraperitoneal injections of a compound (3.5 mg/kg in 1% DMSO) for the entire course of the experiment. Tumour burden was monitored longitudinally for up to 12 weeks in vivo by palpation and caliper measurements of tumour volume, and subsequently histology performed on tumours at the end of the experiment.
Model 4 tested the effect of compounds of the application to inhibit the growth of tumour cells at the transplantation site. MDA-MB-436 cells were injected subcutaneously into recipient mice, followed 2 days later by single daily intraperitoneal injections of compound 12 (3.5 mg/kg in 1% DMSO) for the entire course of the experiment. Tumour burden was monitored longitudinally for up to 12 weeks in vivo by palpation and caliper measurements of tumour volume, and subsequently histology performed on tumours at the end of the experiment.

[3] = tested on: NF-κB activity in MDA-MB-231 cells; assay: NF-kB luciferase assay, EGF-induced NF-kB activity; assay type: cell-based, human; conditions: 1 micromolar, 20 hours, then 100 ng/ml EGF for 3 hours
Method: MDA-MB-231 is a highly metastatic, human basal epithelial cell line isolated from the pleural effusion of an adenocarcinoma. The cells are ‘triple negative’ as they lack estrogen, progesterone and ERBB2 receptor and they strongly over-express EGFR. The expression of receptors in this line has been confirmed by the host laboratory.
For NF-κB luciferase assays, cells are seeded into clear bottom black 96-well plates (Corning Inc., Lowell, US) in antibiotic free culture media in appropriate density. After about 20-24 hrs, cells are transfected with 10 ng of 3×κB luciferase plasmid and 10 ng of pcDNA3.1-Lacl plasmid per well. […]
After 48 hrs post-transfection with luciferase reporter plasmid, the media is aspirated and cells are lyzed using 50 μl/well of Glo-lysis buffer (Promega, Southampton, UK). […] Subsequently, 30 μl/well of Bright-Glo luciferase substrate (Promega, Southampton, UK) is added to the original plate and is assayed immediately for luminescence activity. The luminescence produced from either reaction is read using a Fluorostar Optima plate reader (BMG tabtech, Bucks, UK). […]
After 48 hrs post-transfection with luciferase reporter plasmid, the media was aspirated and cells were lyzed using 50 μl/well of Glo-lysis buffer (Promega, Southampton, UK). […] The luminescence produced from either reaction was read using a Flurostar Optima plate reader (BMG tabtech, Bucks, UK). […]

COc1ccc(C(=O)Nc2ccccc2C(=O)NCCN2CCOCC2)c(F)c1 [Compound 12, 2-fluoro-4-methoxy-N-(2-((2-morpholinoethyl)carbamoyl)phenyl) benzamide]
disease free survival [1]: 100%
average tumour growth at the transplantation site [2]: significant reductions in average tumour growth
greater suppression of NF-kB activity as compared to reference compound A [3]: 25%
suppression of EGF induced NF-kB activity ([3]; MDA-MB-231 NF-kB promoter luciferase reporter): 100%
